Test results taken from ChEMBL document CHEMBL1201862, “PubChem BioAssay data set” (2004).
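Briefly, cells in 96-well plates were exposed to five compound concentrations for 48 h, and endpoints were estimated by linear interpolation. GI50 is the concentration that inhibits growth by half.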 Calls of active or inactive are those of the source. Rule as the data show it: active = GI50 up to about 1.1 µM and inactive = higher.

How the values were obtained:
Experiment in all cases: growth of human tumour cells (NCI), 48 h
NCI/ADR-RES = test system: NCI/ADR-RES
U-251 = test system: U-251
HCC 2998 = test system: HCC 2998
NCI-H23 = test system: NCI-H23
IGROV-1 = test system: IGROV-1
MDA-MB-231 = test system: MDA-MB-231
A498 = test system: A498
OVCAR-4 = test system: OVCAR-4
MCF7 = test system: MCF7
DU-145 = test system: DU-145
MOLT-4 = test system: MOLT-4
CAKI-1 = test system: CAKI-1
BT-549 = test system: BT-549
HCT-116 = test system: HCT-116
HOP-62 = test system: HOP-62
SK-MEL-2 = test system: SK-MEL-2
RPMI-8226 = test system: RPMI-8226
SN12C = test system: SN12C
UACC-62 = test system: UACC-62
NCI-H522 = test system: NCI-H522
SNB-19 = test system: SNB-19
LOX IMVI = test system: LOX IMVI
Malme-3M = test system: Malme-3M
UACC-257 = test system: UACC-257
M14 = test system: M14
UO-31 = test system: UO-31
EKVX = test system: EKVX
COLO 205 = test system: COLO 205
RXF 393 = test system: RXF 393
OVCAR-8 = test system: OVCAR-8
SF-268 = test system: SF-268
NCI-H460 = test system: NCI-H460
ACHN = test system: ACHN
OVCAR-5 = test system: OVCAR-5
HOP-92 = test system: HOP-92
SK-MEL-28 = test system: SK-MEL-28
Hs-578T = test system: Hs-578T
SK-OV-3 = test system: SK-OV-3
786-0 = test system: 786-0
SNB-75 = test system: SNB-75
SW-620 = test system: SW-620
KM12 = test system: KM12
MDA-MB-435 = test system: MDA-MB-435
T47D = test system: T47D
CCRF-CEM = test system: CCRF-CEM
HCT-15 = test system: HCT-15
SR = test system: SR
TK-10 = test system: TK-10
OVCAR-3 = test system: OVCAR-3
A549 = test system: A549
MDA-N = test system: MDA-N
SK-MEL-5 = test system: SK-MEL-5
SF-295 = test system: SF-295
K562 = test system: K562
PC-3 = test system: PC-3
SF-539 = test system: SF-539
HL-60 = test system: HL-60
NCI-H226 = test system: NCI-H226
HT-29 = test system: HT-29

Compound: Cc1[nH]c(/C=C2\C(=O)Nc3ccccc32)c(C)c1CCC(=O)O [ORANTINIB]
- GI50 (NCI/ADR-RES): 37.3 µM (inactive)
- GI50 (U-251): 59.4 µM (inactive)
- GI50 (HCC 2998): 35.6 µM (inactive)
- GI50 (NCI-H23): 27.7 µM (inactive)
- GI50 (IGROV-1): 21.9 µM (inactive)
- GI50 (MDA-MB-231): 37.9 µM (inactive)
- GI50 (A498): 55 µM (inactive)
- GI50 (OVCAR-4): 33.6 µM (inactive)
- GI50 (MCF7): 28.1 µM (inactive)
- GI50 (DU-145): 31.5 µM (inactive)
- GI50 (MOLT-4): 30.1 µM (inactive)
- GI50 (CAKI-1): 22.1 µM (inactive)
- GI50 (BT-549): 34.1 µM (inactive)
- GI50 (HCT-116): 31.1 µM (inactive)
- GI50 (HOP-62): 29.4 µM (inactive)
- GI50 (SK-MEL-2): 16.8 µM (inactive)
- GI50 (RPMI-8226): 22.8 µM (inactive)
- GI50 (SN12C): 31 µM (inactive)
- GI50 (UACC-62): 32.2 µM (inactive)
- GI50 (NCI-H522): 34.1 µM (inactive)
- GI50 (SNB-19): 53.5 µM (inactive)
- GI50 (LOX IMVI): 28.4 µM (inactive)
- GI50 (Malme-3M): 21.2 µM (inactive)
- GI50 (UACC-257): 23.7 µM (inactive)
- GI50 (M14): 23.1 µM (inactive)
- GI50 (UO-31): 32.7 µM (inactive)
- GI50 (EKVX): 28.5 µM (inactive)
- GI50 (COLO 205): 20.6 µM (inactive)
- GI50 (RXF 393): 29.1 µM (inactive)
- GI50 (OVCAR-8): 40.7 µM (inactive)
- GI50 (SF-268): 34.4 µM (inactive)
- GI50 (NCI-H460): 31 µM (inactive)
- GI50 (ACHN): 30.5 µM (inactive)
- GI50 (OVCAR-5): 27.5 µM (inactive)
- GI50 (HOP-92): 21.8 µM (inactive)
- GI50 (SK-MEL-28): 31.1 µM (inactive)
- GI50 (Hs-578T): 37.9 µM (inactive)
- GI50 (SK-OV-3): 30.1 µM (inactive)
- GI50 (786-0): 51.4 µM (inactive)
- GI50 (SNB-75): 12.6 µM (inactive)
- GI50 (SW-620): 25.7 µM (inactive)
- GI50 (KM12): 4.37 µM (inactive)
- GI50 (MDA-MB-435): 36.5 µM (inactive)
- GI50 (T47D): 34.1 µM (inactive)
- GI50 (CCRF-CEM): 34.7 µM (inactive)
- GI50 (HCT-15): 31.4 µM
- GI50 (SR): 23.9 µM (inactive)
- GI50 (TK-10): 42.5 µM (inactive)
- GI50 (OVCAR-3): 22.1 µM (inactive)
- GI50 (A549): 33.9 µM (inactive)
- GI50 (MDA-N): 27.2 µM (inactive)
- GI50 (SK-MEL-5): 26.5 µM (inactive)
- GI50 (SF-295): 32.5 µM (inactive)
- GI50 (K562): 36.4 µM (inactive)
- GI50 (PC-3): 35.7 µM (inactive)

Compound: COc1ccc2nc3cc([N+](=O)[O-])ccc3c(NNc3ccccc3)c2c1
- GI50 (NCI/ADR-RES): 31 µM (inactive)
- GI50 (U-251): 18.7 µM (inactive)
- GI50 (HCC 2998): 23.2 µM (inactive)
- GI50 (NCI-H23): 34.7 µM (inactive)
- GI50 (IGROV-1): 2.93 µM (inactive)
- GI50 (MDA-MB-231): 20.6 µM (inactive)
- GI50 (A498): 0.0681 µM (active)
- GI50 (OVCAR-4): 60.7 µM (inactive)
- GI50 (MCF7): 10.8 µM (inactive)
- GI50 (DU-145): 42.1 µM (inactive)
- GI50 (MOLT-4): 21 µM (inactive)
- GI50 (BT-549): 28.5 µM (inactive)
- GI50 (HCT-116): 11.4 µM (inactive)
- GI50 (HOP-62): 27.7 µM (inactive)
- GI50 (SK-MEL-2): 27.4 µM (inactive)
- GI50 (RPMI-8226): 17.5 µM (inactive)
- GI50 (SN12C): 30.2 µM (inactive)
- GI50 (UACC-62): 2 µM (inactive)
- GI50 (NCI-H522): 20.7 µM (inactive)
- GI50 (SNB-19): 56.4 µM (inactive)
- GI50 (LOX IMVI): 29 µM (inactive)
- GI50 (Malme-3M): 20.3 µM (inactive)
- GI50 (UACC-257): 1.19 µM (inactive)
- GI50 (M14): 27.5 µM (inactive)
- GI50 (SF-539): 26.8 µM (inactive)
- GI50 (UO-31): 31.4 µM (inactive)
- GI50 (EKVX): 16 µM (inactive)
- GI50 (COLO 205): 10.8 µM (inactive)
- GI50 (RXF 393): 47.9 µM (inactive)
- GI50 (OVCAR-8): 39.3 µM (inactive)
- GI50 (SF-268): 30.8 µM (inactive)
- GI50 (NCI-H460): 11.7 µM (inactive)
- GI50 (ACHN): 30 µM (inactive)
- GI50 (OVCAR-5): 2.07 µM (inactive)
- GI50 (HOP-92): 19.8 µM (inactive)
- GI50 (SK-MEL-28): 77.6 µM (inactive)
- GI50 (Hs-578T): 26.5 µM (inactive)
- GI50 (SK-OV-3): > 73.6 µM (inactive)
- GI50 (HL-60): 18.7 µM (inactive)
- GI50 (786-0): 18.4 µM (inactive)
- GI50 (SNB-75): 49.1 µM (inactive)
- GI50 (SW-620): 17.3 µM (inactive)
- GI50 (NCI-H226): 0.596 µM (active)
- GI50 (KM12): 12.4 µM (inactive)
- GI50 (MDA-MB-435): 29.6 µM (inactive)
- GI50 (T47D): 26.9 µM (inactive)
- GI50 (CCRF-CEM): 23.2 µM (inactive)
- GI50 (HCT-15): 22.6 µM
- GI50 (HT-29): 13.8 µM (inactive)
- GI50 (SR): 14.8 µM (inactive)
- GI50 (TK-10): 2.58 µM (inactive)
- GI50 (OVCAR-3): 30 µM (inactive)
- GI50 (A549): 13.9 µM (inactive)
- GI50 (MDA-N): 29.5 µM (inactive)
- GI50 (SK-MEL-5): 16.7 µM (inactive)
- GI50 (SF-295): 35.5 µM (inactive)
- GI50 (K562): 5.69 µM (inactive)
- GI50 (PC-3): 35.4 µM (inactive)
